In paper PMC3953482, “Fha Interaction with Phosphothreonine of TssL Activates Type VI Secretion in Agrobacterium tumefaciens” (PLoS Pathogens, 2014):
“Also recorded” adds a separate entry of the source. Non-standard residues stand in square brackets, D forms with d. No end group written: not given here. pT = C[C@@H](OP(=O)(O)O)[C@H](N)C(=O)O

Assays:
Fha7-267^WT = assay: Isothermal titration calorimetry (ITC) of TssL/CHK2 peptides with Fha7-267^WT; type: binding, A. tumefaciens; conditions: 25°C, 50 mM Tris-HCl (pH 8.0), 150 mM NaCl, 200 µM protein in cell, 6 mM peptide in syringe, result in words
Text: Because FHA domains are well known to bind to pThr residues specifically [33]–[35], we hypothesized that Fha specifically binds Thr 14-phosphorylated TssL to activate type VI secretion. To test this hypothesis, we first performed isothermal titration calorimetry (ITC) analysis with purified Fha proteins and synthetic phosphorylated- and unphosphorylated TssL N-terminal peptides. Because of the instability of full-length Fha protein purified from E. coli (data not shown), we purified truncated Fha proteins with different lengths for the ITC experiments (Figure S6A). […] The binding affinity was ∼3-fold higher (Kd 0.54±0.07 mM) with a longer phosphorylated TssL peptide (DNPSSWQDLPpTVVEITEESR, p-TssL^20 mer) (Figure 6B). […] (Figure 6C, 6E).
Figure 6 Phosphorylated TssL is a direct binding partner of Fha. Isothermal titration calorimetry (ITC) of specific binding between Fha and TssL peptides. […]
ITC analysis was used to determine the binding affinity and stoichiometry between Fha and TssL T-14 peptide with use of the MicroCal iTC200 system (GE Healthcare) and analyzed with ORIGIN software. […] The titration heat was calculated to eliminate the effect of heat generated from titrating the ligand into buffer. […]

Fha7-309^WT = assay: Isothermal titration calorimetry (ITC) of TssL peptides with Fha7-309^WT; type: binding, A. tumefaciens; conditions: 25°C, 50 mM Tris-HCl (pH 8.0), 150 mM NaCl, 200 µM protein in cell, 6 mM peptide in syringe, result in words
Protocol: ITC analysis was used to determine the binding affinity and stoichiometry between Fha and TssL T-14 peptide with use of the MicroCal iTC200 system (GE Healthcare) and analyzed with ORIGIN software. Truncated His-tagged Fha^7–267 and Fha^7–309 proteins were overexpressed and purified from E. coli BL21(DE3) as described. The proteins and various synthetic peptides were dissolved in buffer containing 50 mM Tris-HCl (pH 8.0), 150 mM NaCl. Synthetic phosphorylated TssL (DLPpTVVEI, p-TssL^8 mer; DNPSSWQDLPpTVVEITEESR, p-TssL^20 mer), unphosphorylated TssL (DLPTVVEI, TssL^8 mer), and phosphorylated CHK2 (VSpTQEL, p-CHK2^6 mer) peptides, were used to titrate the various Fha^7–267 or Fha^7–309 proteins at 25°C with a total 25 times of injections with 200 µM protein in the sample cell and 6 mM peptide in the injection syringe. The titration heat was calculated to eliminate the effect of heat generated from titrating the ligand into buffer. […]
Supplementary file ppat.1003991.s006.tif: Figure S6 SDS-PAGE analysis of purified Fha proteins and isothermal titration calorimetry (ITC) analysis. […] Five µg of purified Fha proteins (Fha7-267^WT, Fha7-267^R30AS46A, Fha7-309^WT) was analyzed by 12% SDS-PAGE and stained by Coomassie blue to ensure protein purity. […]

[1] = biological target: Fha7-267^WT (truncated His-tagged Fha with the intact FHA domain) (Agrobacterium tumefaciens C58); assay: ITC; MicroCal iTC200; 200 µM Fha protein in the sample cell, 6 mM peptide in the injection syringe, 25 injections, 25°C, 50 mM Tris-HCl (pH 8.0), 150 mM NaCl; One Set of Sites model with the N value fixed at 1
[2] = biological target: Fha7-309^WT (longer version of the truncated Fha protein) (Agrobacterium tumefaciens C58); assay: as above

Molecule	equilibrium dissociation constant (Kd), binding not detectable (Fha7-267^WT)	binding affinity, not detectable (Fha7-309^WT)	Kd [1] [µM]	Kd [2] [µM]
DLPTVVEI [TssL^8 mer, synthetic unphosphorylated TssL peptide (DLPTVVEI)]	could not detect the binding affinity; also recorded: Undetectable	undetectable		
VSpTQEL [p-CHK2^6 mer, 6 mer phosphorylated CHK2 peptide (VSpTQEL), control, reference compound]	could not detect the binding affinity; also recorded: Undetectable			
DLP[pT]VVEI [8 mer phosphorylated TssL peptide (DLPpTVVEI)]			1580	2150
DNPSSWQDLP[pT]VVEITEESR [20 mer phosphorylated TssL peptide (…p…)]			540	
